Data: US10662204B2 (PFIZER INC., priority 2018, dated 2020)

What was measured:
KRAS G12C = KRAS G12C (Homo sapiens, UniProt P01116, G12C); experiment: Cell Activity Assay: accumulation of GDP-bound KRAS G12C in MIAPaCa-2 cells (Raf-1 RBD capture, MSD readout); format: cell-based; design: endogenous in cells; host or cells: MIAPaCa-2; conditions: 6 hours, assay limit is 30.00
Experimental: Compounds presented in the present invention lead to the accumulation of the GDP bound Ras upon treatment of human cancer cell line.
The accumulation of the GDP-bound KRAS G12C in cellular environment was measured based on the principle that KRAS G12C only binds to its downstream kinase; Raf-1 (MAP Kinase Kinase Kinase), when in its active-GTP bound state. In this state, Ras binded to a domain of Raf-1 kinase referred to as the Ras Binding Domain (RBD).
MIAPaCa-2 cells were grown in RPMI 1640 medium (Gibco 11875) supplemented with 10% fetal bovine serum and 1% penicillin/streptomycin. Cells were seeded in 96-well tissue culture plates at a density of 30,000 cells/well and allowed to attach for 16-24 hours. Test compounds were prepared as a 10 mM stock in DMSO and serially diluted in 100% DMSO using a 3-fold dilution scheme. An intermediate 5× concentrated plate in complete growth medium was made and 25 μl/well was added to the 100 μl of cells for a final concentration of 0.3% DMSO. Each concentration of exemplary compound was tested in duplicate. The negative control wells were cells with control inhibitor at 10 μM, and the positive control wells were cells without drugs, DMSO only. Plates were incubated for 6 hours at 37° C., 5% CO2. Following treatment, cells were washed 3× with ice-cold PBS and 115 μl/well ice-cold 1× Assay/Lysis. Buffer with protease inhibitors was added (25 mM HEPES, pH 7.5, 150 mM NaCl, 1% NP-40, 10 mM MgCl2, 1 mM EDTA, 2% Glycerol). Following lysis samples were frozen at −80° C.
Raf-1 RBD (LJIC-1988A1) was diluted to 100 ng/well in PBS and 5 μl/well was spot coated onto MSD high bind SECTOR plates (L15XB). Plates were incubated at room temperature for 1 hour on an orbital shaker. Plates were washed with PBS/0.05% Tween-20 and 50 μl/well of thawed lysate samples were added, followed by 50 μl of 1% MSD Blocker A in PBS/0.05 Tween-20 (R93BA). Plates were incubated for 1 hour on an orbital shaker and washed with PBS/0.05% Tween-20. 25 μl/well of Anti-pan-Ras Antibody (Cell Biolabs 244003) diluted 1:3000 was added in 1% MSD Blocker A solution and plates were incubated for 1 hour on an orbital shaker and washed with PBS/0.05% Tween-20. SULFO-TAG goat anti-mouse secondary antibody (MSD R32AC) was diluted 1:500 in MSD Blocker A solution and added at 25 μL/well. Plates were incubated for 1 hour on an orbital shaker and washed with PBS/0.05% Tween-20. 150 μl/well of Read Buffer T (MSD R92TC) diluted 1:3 in H2O was added and plates were read on a Meso Scale Discovery Sector Imager S600.
KRAS signal was normalized to maximum inhibition and DMSO control values, and IC50 values were generated using a 4 parameter fit of the dose response curve. The decrease in IC50 reflects that the exemplary compound lead to a higher level of accumulation of GDP-bound KRAS G12C than another exemplary compounds at specific timepoint of treatment of cancer cell line.

[1] = target: T1, GDP-loaded KRAS (1-169) G12C, C51S, C80L, C118S (Homo sapiens, UniProt P01116, C118S/C51S/C80L/G12C); experiment: Mass Spectrometry Reactivity Assay (MSRA): covalent adduct of compound and KRAS G12C, Percent Modification; format: binding; conditions: for MSRA (% modification) 10 μM 0.50 hr / MSRA (% modification) 10 μM 0.25 hr: 10 μM compound; for MSRA (% modification) 5.0 μM 0.017 hr / MSRA (% modification) 5.0 μM 0.25 hr: 5.0 μM compound
T1 construct: GDP-loaded KRAS (1-169) G12C, C51S, C80L, C118S
Experimental: Mass Spectrometry Reactivity Assay (MSRA)
Compounds presented in the present invention covalently bind to KRAS G12C using MSRA to detect a covalent adduct of the exemplary compound and KRAS G12C.
GDP-loaded KRAS (1-169) G12C, C51S, C80L, C118S were diluted in the protein assay buffer 25 mM Hepes pH7.5, 200 mM NaCl, 5% glycerol to concentration of 5 μM and 20 μl of protein was transferred into 96-well plate. Initial compound stocks were generated at concentrations 100-fold higher that their desired assay concentrations. See K-Ras(G12C) inhibitors allosterically control GTP affinity and effector interactions; Ostrem J M, Peters U, Sos M L, Wells J A, Shokat K M; Nature. 2013, Nov. 28; 503(7477):548-51.
Exemplary compounds dissolved in DMSO were diluted 100-fold into solution containing 20 μl of 5 μM KRAS protein in the 96-well plate to initiate the reaction. Mosquito (TPP Lab tech) liquid handling robot was used to add compounds to protein solution. Typical final concentration of the compounds was 5 μM or 10 μM. The plates were placed on a shaker for 1 min at RT, sealed and incubated at room temperature for specified time period. 5 μl of reaction mix was added to 10 μl of 0.2% formic acid stop solution and mixed well. Typical end points were 1, 15, 30, and 60 min.
Data were collected using Waters Acquity H-class UPLC system/Xevo G2-XS TOF mass spectrometer. The protein was injected in their liquid phase onto a Bruker Microtrap protein column TR1/15109/03. The following buffers were used to set LC gradient: Buffer A: 0.2% formic acid H2O; B: 0.2% formic acid CAN. The protein was eluted from the column using the following LC Gradient: 0-0.4 min, 10% B to 30% B; 0.4 min-2.4 min, to 90% B, 2.5 min, 10% B, 3 min, 10% B. Initial data analysis was performed using MaxEnt software right after data acquisition.
The standard auto processing function was used to define percentage of unmodified and modified KRAS protein using MexEnt software right after data acquisition. The highest peak was defined as 100% while smaller peak as assigned the number defined by autoprocessing function. The percent of modification corresponding to modified with exemplary compound and unmodified KRAS GDP-loaded KRAS (1-169) G12C, C51S, C80L, C118S were exported to Xcel data analysis software.
The percent of modified protein at the defined concentration of exemplary compound was calculated using the following formula: % mod=Num of modified peak/Sum of modified+unmodified. The resultant value defined as Percent Modification (PM) and an increase in PM reflects that the specific compound is better than other compounds at specified compound concentration at a given time point.

C=CC(=O)N1CCN(c2ncnc3c(Oc4c(C(F)(F)F)ccc5[nH]ncc45)nccc23)CC1 [Example 04C, 1-[4-(8-{[5-(trifluoromethyl)-1H-indazol-4-yl]oxy}pyrido[3,4-d]pyrimidin-4-yl)piperazin-1-yl]prop-2-en-1-one]
IC50 (KRAS G12C): 18.2 µM | MSRA (% modification) 10 μM 0.50 hr [1]: 21%

C=CC(=O)N1CCN(c2nc(OCCN(C)C)nc3c(Oc4c(C)ccc5[nH]ncc45)cccc23)CC1 [Example 03E, 1-(4-{2-[2-(dimethylamino)ethoxy]-8-[(5-methyl-1H-indazol-4-yl)oxy]quinazolin-4-yl}piperazin-1-yl)prop-2-en-1-one]
IC50 (KRAS G12C): 1.44 µM | MSRA (% modification) 10 μM 0.50 hr [1]: 40%

C=CC(=O)N1CCN(c2nc(OC[C@@H]3C[C@H](F)CN3C)nc3c(Oc4c(Cl)c(F)cc5[nH]ncc45)nc(Cl)cc23)CC1 [Example 21G, 1-[4-(6-chloro-8-[(5-chloro-6-fluoro-1H-indazol-4-yl)oxy]-2-{[(2S,4S)-4-fluoro-1-methylpyrrolidin-2-yl]methoxy}pyrido[3,4-d]pyrimidin-4-yl)piperazin-1-yl]prop-2-en-1-one]
IC50 (KRAS G12C): 0.075 µM | MSRA (% modification) 10 μM 0.25 hr [1]: 80%

C=CC(=O)N1CCN(c2nc(O[C@@H]3CN(C)C[C@H]3C(F)(F)F)nc3c(Oc4c(Cl)c(F)cc5[nH]ncc45)nccc23)CC1 [Example 57I, 1-[4-(8-[(5-chloro-6-fluoro-1H-indazol-4-yl)oxy]-2-{[(3S,4R)-1-methyl-4-(trifluoro-methyl)pyrrolidin-3-yl]oxy}pyrido [3,4-d]pyrimidin-4-yl)piperazin-1-yl]prop-2-en-1-one]
IC50 (KRAS G12C): 0.024 µM | MSRA (% modification) 5.0 μM 0.017 hr [1]: 22%

C=CC(=O)N1CCN(c2nc(O[C@@H]3CN(C)C[C@H]3OC)nc3c(Oc4c(Cl)c(F)cc5[nH]ncc45)nc(Cl)cc23)CC1 [Example 24G, 1-[4-(6-chloro-8-[(5-chloro-6-fluoro-1H-indazol-4-yl)oxy]-2-{[(3R,4R)-4-methoxy-1-methylpyrrolidin-3-yl]oxy}pyrido[3,4-d]pyrimidin-4-yl)piperazin-1-yl]prop-2-en-1-one]
IC50 (KRAS G12C): 0.004 µM | MSRA (% modification) 5.0 μM 0.017 hr [1]: 83% | MSRA (% modification) 5.0 μM 0.25 hr [1]: 84%

C=CC(=O)N1CCN(c2nc(O[C@@H]3CN(C)C[C@H]3OC)nc3c(Oc4c(Cl)ccc5[nH]ncc45)nccc23)CC1 [Example 49I]
IC50 (KRAS G12C): 0.17 µM | MSRA (% modification) 5.0 μM 0.017 hr [1]: 34%

C=CC(=O)N1CCN(c2nc(OCc3ccccn3)nc3c(Oc4c(Cl)c(F)cc5[nH]ncc45)nccc23)CC1 [Example 08H, 1-(4-{8-[(5-chloro-6-fluoro-1H-indazol-4-yl)oxy]-2-(pyridin-2-ylmethoxy)pyrido[3,4-d]pyrimidin-4-yl}piperazin-1-yl)prop-2-en-1-one]
IC50 (KRAS G12C): 0.491 µM | MSRA (% modification) 5.0 μM 0.25 hr [1]: 36%

C=CC(=O)N1CCN(c2ncnc3c(Oc4c(C)c(Cl)cc5[nH]ncc45)nccc23)C[C@@H]1C [Example 23A, 1-[(2S)-4-{8-[(6-chloro-5-methyl-1H-indazol-4-yl)oxy]pyrido[3,4-d]pyrimidin-4-yl}-2-methylpiperazin-1-yl]prop-2-en-1-one]
IC50 (KRAS G12C): 11.6 µM | MSRA (% modification) 10 μM 0.50 hr [1]: 20%

C=CC(=O)N1CCN(c2nc(OCCN(C)C)nc3c(Oc4c(Cl)c(C)cc5[nH]ncc45)cccc23)CC1 [Example 15E, 1-(4-{8-[(5-chloro-6-methyl-1H-indazol-4-yl)oxy]-2-[2-(dimethylamino)ethoxy]quinazolin-4-yl}piperazin-1-yl)prop-2-en-1-one]
IC50 (KRAS G12C): 0.51 µM | MSRA (% modification) 5.0 μM 0.25 hr [1]: 56% | MSRA (% modification) 10 μM 0.25 hr [1]: 59% | MSRA (% modification) 10 μM 0.50 hr [1]: 74%

C=CC(=O)N1CCN(c2nc(OC[C@H]3CCCN3C)nc3c(Oc4c(Cl)c(F)cc5[nH]ncc45)cccc23)CC1 [Example 20E, 1-[4-(8-[(5-chloro-6-fluoro-1H-indazol-4-yl)oxy]-2-{[(2R)-1-methylpyrrolidin-2-yl]methoxy}quinazolin-4-yl)piperazin-1-yl]prop-2-en-1-one]
IC50 (KRAS G12C): 1.02 µM | MSRA (% modification) 10 μM 0.25 hr [1]: 8%

C=CC(=O)N1CCN(c2ncnc3c(Oc4c(Br)c(C)cc5[nH]ncc45)nccc23)CC1 [Example 13A, 1-(4-{8-[(5-bromo-6-methyl-1H-indazol-4-yl)oxy]pyrido[3,4-d]pyrimidin-4-yl}piperazin-1-yl)prop-2-en-1-one]
IC50 (KRAS G12C): 0.394 µM | MSRA (% modification) 10 μM 0.25 hr [1]: 44% | MSRA (% modification) 10 μM 0.50 hr [1]: 69%

C=CC(=O)N1CCN(c2nc(OC[C@H]3CCCO3)nc3c(Oc4c(Cl)c(F)cc5[nH]ncc45)nccc23)CC1 [Example 06H, 1-(4-{8-[(5-chloro-6-fluoro-1H-indazol-4-yl)oxy]-2-[(2R)-tetrahydrofuran-2-ylmethoxy]pyrido[3,4-d]pyrimidin-4-yl}piperazin-1-yl)prop-2-en-1-one]
IC50 (KRAS G12C): 0.611 µM | MSRA (% modification) 5.0 μM 0.25 hr [1]: 48% | MSRA (% modification) 10 μM 0.25 hr [1]: 60%

C=CC(=O)N1CCN(c2nc(O[C@@H]3CN(C)C[C@H]3OC)nc3c(Oc4c(Cl)ccc5[nH]ncc45)nc(Cl)cc23)CC1 [Example 38G, 1-[4-(6-chloro-8-[(5-chloro-1H-indazol-4-yl)oxy]-2-{[(3R,4R)-4-methoxy-1-methylpyrrolidin-3-yl]oxy}pyrido[3,4-d]pyrimidin-4-yl)piperazin-1-yl]prop-2-en-1-one]
IC50 (KRAS G12C): 0.021 µM | MSRA (% modification) 5.0 μM 0.017 hr [1]: 75%

C=CC(=O)N1CCN(c2ncnc3c(Oc4c(Cl)ccc5[nH]ncc45)nccc23)CC1 [Example 06A, 1-(4-{8-[(5-chloro-1H-indazol-4-yl)oxy]pyrido[3,4-d]pyrimidin-4-yl}piperazin-1-yl)prop-2-en-1-one]
IC50 (KRAS G12C): 6.75 µM | MSRA (% modification) 10 μM 0.50 hr [1]: 26%

C=CC(=O)N1CCN(c2nc(NC3CNC(=O)C3)nc3c(Oc4c(C)ccc5[nH]ncc45)cccc23)CC1 (centres unmarked) [Example 15F, 4-({4-(4-acryloylpiperazin-1-yl)-8-[(5-methyl-1H-indazol-4-yl)oxy]quinazolin-2-yl}amino)pyrrolidin-2-one]
IC50 (KRAS G12C): > 30 µM | MSRA (% modification) 10 μM 0.50 hr [1]: 13%
